Assay results reported in patent publication US20250221963A1 (GH RESEARCH IRELAND LIMITED, priority 2022, published 2025).

Columns and labels:
human hepatocytes [1] = test: In vitro metabolism identification study in human hepatocytes; settings: for Relative Proportion of compounds identified: 5-MeO-DMT free base incubated up to 120 minutes at 10 μM; for Presence in subsequent assays: metabolites of 5-MeO-DMT
Description: For incubations with cryopreserved hepatocytes, the 2 mM stock solution was diluted with Leibovitz L-15 medium to a concentration of 20 μM or 2 μM. An aliquot (250 μL) of the 20 μM and 2 μM test substance formulations was added to each hepatocyte incubation sample (250 μL), as appropriate, so that the final test substance concentration in the incubations was 10 μM or 1 μM, respectively, and incubations contained less than 1% (v/v) solvent.
Incubations were performed at ca. 37° C. in a shaking water bath (total incubation volume 0.5 mL). For 1 μM, incubations were terminated after 0, 5, 10, 20, 30, 60 and 120 minutes, by the addition of ice-cold acetonitrile (0.5 mL).
The samples were vortex mixed and centrifuged at ca 13,000 rpm for 10 minutes at room temperature. Following centrifugation, the protein-free supernatants were removed for analysis.
Blank control incubations were carried out with Leibovitz L-15 medium in place of the test substance. No cells control samples were performed with Leibovitz L-15 medium in place of hepatocytes. Aliquots of the blank control samples were taken at 120 minutes, while no cells control samples were taken at 0, 30 and 120 for 1 μM incubations and at 0 and 120 minutes for 10 μM incubations.
All 1 μM incubations were performed in duplicate, while all 10 μM incubations were performed in singlet. All samples were stored at −80° C. (nominal) prior to analysis.
Prior to sample analysis a 100 μL aliquot of each sample was evaporated to near dryness under a steady stream of nitrogen at room temperature, and subsequently reconstituted in 50 μL of mobile phase A (0.1% formic acid in water). Each sample (0, 30 and 120-minute, 10 μM) was analysed using accurate mass LC-MS to determine relative levels of parent compound at each time-point, and determine the profile of metabolites formed. Appropriate blank and control samples were also analysed. The 10 and 60-minute, 10 μM incubation samples were not analysed and were stored at −80° C. (nominal).
Data were interrogated for the presence of metabolites by comparison of retention times with the test substance reference standard and based on the accurate masses of potential metabolites using screening software (UNIFI version 1.9.4), and user defined search parameters. To confirm a suspected metabolite, the measured accurate mass of the peak detected in the sample used for structural elucidation had to be within 5 ppm of the theoretical mass in order to confirm the molecular formula.

human hepatocytes [2] = test: Metabolic stability in Hμrel co-culture assay with human hepatocytes; settings: for Disappearance with stromal cell controls: stromal cells
human plasma protein = test: Plasma binding of 5-MIAA; type: in vitro ADME
Description: Binding to human plasma protein was determined. Reported are the unbound fraction (fu) for three replicates as well as the mean unbound fraction, the standard deviation and the mean % recovery (Table 8).

[3] = Pharmacokinetics of 5-MeO-DMT and bufotenine after inhalation; type: in vivo, human
Description: Blood samples were obtained at 1; 2; 4; 7; 10; 15; 20; 30; 45 min and 1; 1.5; 2; 3; 4 hours after administration.
PK parameters were generated by algebraic analysis of the concentration versus time plots for each individual. The analysis was carried out using the software Phoenix WinNonlin 6.3.

Compound	Relative Proportion of compounds identified (human hepatocytes [1]) [%]	Presence in subsequent assays (human hepatocytes [1])	Disappearance with stromal cell controls (human hepatocytes [2])	Unbound fraction (fu) (human plasma protein; Replicate 1)	Unbound fraction (fu) (human plasma protein; Replicate 2)	Unbound fraction (fu) (human plasma protein; Replicate 3)	also measured
COc1ccc2[nH]cc(CC(=O)O)c2c1 [5-MIAA, 5-methoxyindole-3-acetic acid]	61	predominant metabolite	no disappearance	0.499	0.462	0.544	Half-life (human hepatocytes [2]; human hepatocytes, 1 μM): 15 400 min; In vitro intrinsic clearance (human hepatocytes [2]; human hepatocytes, 1 μM): 0.15 μl/min/million cells; Plasma binding (mean fraction unbound) (human plasma protein): ~50%; Time until all traces are removed from circulation for urinary excretion (human plasma protein; assuming glomerular filtration rate of 90-120 ml/min): 1 to 2 h; Mean fu (human plasma protein; three replicates): 0.502
COc1ccc2[nH]cc(CC[N+](C)(C)[O-])c2c1 [5-MeO-DMT-N-oxide]	1	–	–	–	–	–	–
COc1ccc2[nH]cc(CCO)c2c1 [5-methoxytryptophol, 5-Methoxyindole-3-ethanol]	25	repeatedly failed to detect the presence	no disappearance	–	–	–	Time to complete disappearance (human hepatocytes [2]; in the presence of hepatocytes): 24 h
CC(=O)CC(c1ccccc1)c1c(O)c2ccccc2oc1=O (stereo not shown) [Warfarin, reference compound]	–	–	–	0.0418	0.0356	0.0358	–
CN(C)CCc1c[nH]c2ccc(O)cc12 [bufotenine]	5	–	–	–	–	–	Detection in human serum ([3]; after administration of 5-MeO-DMT): barely detected; Bufotenine blood concentration ([3]; from 15 min onwards after 5-MeO-DMT, LLOQ): < 25 pg/mL
